Source: publication PMC11314561, “Design and Synthesis of Novel Aminoindazole-pyrrolo[2,3-b]pyridine Inhibitors of IKKα That Selectively Perturb Cellular Non-Canonical NF-κB Signalling” (Molecules, 2024)
Like-named read-outs stand apart in the source and are kept apart here.

Columns and labels:
[1] = tested on: p105 (Ser932) phosphorylation in PC-3M cells; test: TNFα-stimulated p105 (Ser932) phosphorylation, Western blotting; type: cell-based; details: 0.1–10 µM
Protocol: (§1) U2OS cells were cultured in McCoy’s 5A Modified Medium, and PC-3M-Luc-C6 prostate cancer cells were cultured in Minimum Essential Medium (MEM), each containing 10% (v/v) Foetal Calf Serum (FCS), L-glutamine ([…]), and penicillin/streptomycin (250 units/mL; 100 μg/mL) and incubated in a humidified atmosphere at 37 °C with 5% (v/v) CO2. Cells were grown to near confluence and prior to experimentation rendered quiescent by serum deprivation for 24 h.
(§2) To examine the potential impact of compounds on canonical NF-κB signalling, cells were then exposed to vehicle (DMSO; 0.05% (v/v)) or increasing concentrations of compounds (0.01–30 µM) for 1 h prior to treatment with TNF⍺ (20 ng/mL) for 30 min. Whole-cell extracts were prepared, and the status of IκB⍺, phospho-p65 (Ser536), p65, and phospho-p105 ([…]) was also assessed by Western blotting.
(§3) Each figure/panel of Western blotting data represents one of at least three separate experiments. Western blots were scanned and imaged using Adobe Photoshop 5.0.2 software and polypeptide bands were semi-quantified by scanning densitometry using the Scion Image program. Data were normalised to fold expression/inhibition relative to ‘agonist plus vehicle’ treatment and expressed as mean ± s.e.m. IC50 values were established by curve fitting using the Hill equation. […]

[2] = tested on: IκBα degradation in PC-3M cells; test: TNFα-stimulated IκBα degradation, Western blotting; type: cell-based; details: for effect on TNFα-stimulated IκBα degradation: PC-3M cells, 0.1–10 µM
Protocol: as §1, §2
as §3, with “s.e.m.” for “s.e.m. IC50 values were established by curve fitting using the Hill equation.”
Figure 14 Compound 5r [SU1261] inhibits LTα1β2-stimulated p100 phosphorylation (Ser866/870) but not TNFα-stimulated IkBα degradation, phosphorylation of p65 (Ser536), nor phosphorylation of p105 (Ser932) in PC-3M prostate cancer cells. […] (0.1–10 µM) for 1 h prior to treatment with LTα1β2 (15 ng/mL) for 4 h, and phospho-p100 (Ser866/870) in whole-cell extracts was assessed by Western blotting. […] (0.1–10 µM) for 1 h prior to treatment with TNFα (10 ng/mL) for 30 min, and IkBα degradation, phospho-p65 (Ser536), phospho-p105 (Ser932), and p65 expression in whole-cell extracts were assessed by Western blotting. […] Normalised data (n = 3) from semi-quantitative scanning densitometry were plotted relative to ‘agonist plus vehicle’ (LTα1β2 plus DMSO), and IC50 values were established by curve fitting using the Hill equation (see Figure S1D).

[3] = Mouse hepatocyte intrinsic clearance and half-life; type: in vitro ADME; details: mouse CD1 hepatocytes; for half-life at 1 µM: cryopreserved pooled hepatocytes; for Mouse Hepatocyte Clearance: 1 µM
Protocol: Intrinsic clearance and half-life were determined using cryopreserved pooled mouse CD1 hepatocytes. Test compounds were analysed at 1 µM in Williams Media E buffer (0.01% DMSO) at a cell density of 0.5 × 10^6 cells mL^–1. Cells were incubated at 37 °C for one hour with shaking, and compound depletion was measured by LC-MS/MS at six time points (0.25, 5, 10, 20, 40, and 60 min).

[4] = In vivo murine PK; details: mouse, plasma, CD1 mice, 10 mg/kg, mean; for half-life: read-out: Terminal t1/2 (converted)
Protocol: Ta b l e S2. in vivo murine PK parameters for 6g [SU1349]. In vivo PK studies were performed by Shanghai ChemPartner Co. Ltd. (Shanghai, 201203 CN) Each route of administration involved three CD1 mice all receiving a single dose, with mean values reported. The IV/IP dosing solution was prepared in 10% DMAC+ 10% Solutol HS15+ 80% (15% of HP-β-CD) in water. BQL: Below quantiϐiable limit of 1 ng/mL for SU1349 in CD1 mouse plasma. All BQL data was excluded from mean value concentration and graphing. Plasma concentrations were determined on an LCMSMS-010 (API4000, triple quadruple) instrument using Positive Ion, ESI MS conditions, with deaxamethasone as an internal standard. Intravenous time points were taken at 5 min, 15 min, 30 min, 1, 2, 4, 8, and 24 hours and intraperitoneal time points were taken at 15 min, 30 min, 1, 2, 4, 6, 8, […]
Administration Dose Mean PK parameters
Clearance Terminal Vss Cmax Tmax F

[5] = biological target: cKit(h) (Homo sapiens, UniProt P10721); test: kinase panel; type: biochemical
Outline: (§4)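 Percentage inhibition was recorded for each compound against a broad kinase panel of 231 enzymes. Because of its close structural resemblance to another analogue, one compound was screened against 98 chosen kinases.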

[6] = biological target: LKB1(h) (Homo sapiens, UniProt Q15831); test: kinase panel; type: biochemical
Outline: as §4

[7] = biological target: BrSK2(h) (Homo sapiens, UniProt Q8IWQ3); test: kinase panel; type: biochemical
Outline: as §4

[8] = biological target: MSK2(h) (Homo sapiens, UniProt O75676); test: kinase panel; type: biochemical
Outline: as §4

[9] = biological target: CSK(h) (Homo sapiens, UniProt P41240); test: kinase panel; type: biochemical
Outline: as §4

[10] = biological target: MELK(h) (Homo sapiens, UniProt Q14680); test: kinase panel; type: biochemical
Outline: as §4

cKit(h), sequence (P10721 26-976): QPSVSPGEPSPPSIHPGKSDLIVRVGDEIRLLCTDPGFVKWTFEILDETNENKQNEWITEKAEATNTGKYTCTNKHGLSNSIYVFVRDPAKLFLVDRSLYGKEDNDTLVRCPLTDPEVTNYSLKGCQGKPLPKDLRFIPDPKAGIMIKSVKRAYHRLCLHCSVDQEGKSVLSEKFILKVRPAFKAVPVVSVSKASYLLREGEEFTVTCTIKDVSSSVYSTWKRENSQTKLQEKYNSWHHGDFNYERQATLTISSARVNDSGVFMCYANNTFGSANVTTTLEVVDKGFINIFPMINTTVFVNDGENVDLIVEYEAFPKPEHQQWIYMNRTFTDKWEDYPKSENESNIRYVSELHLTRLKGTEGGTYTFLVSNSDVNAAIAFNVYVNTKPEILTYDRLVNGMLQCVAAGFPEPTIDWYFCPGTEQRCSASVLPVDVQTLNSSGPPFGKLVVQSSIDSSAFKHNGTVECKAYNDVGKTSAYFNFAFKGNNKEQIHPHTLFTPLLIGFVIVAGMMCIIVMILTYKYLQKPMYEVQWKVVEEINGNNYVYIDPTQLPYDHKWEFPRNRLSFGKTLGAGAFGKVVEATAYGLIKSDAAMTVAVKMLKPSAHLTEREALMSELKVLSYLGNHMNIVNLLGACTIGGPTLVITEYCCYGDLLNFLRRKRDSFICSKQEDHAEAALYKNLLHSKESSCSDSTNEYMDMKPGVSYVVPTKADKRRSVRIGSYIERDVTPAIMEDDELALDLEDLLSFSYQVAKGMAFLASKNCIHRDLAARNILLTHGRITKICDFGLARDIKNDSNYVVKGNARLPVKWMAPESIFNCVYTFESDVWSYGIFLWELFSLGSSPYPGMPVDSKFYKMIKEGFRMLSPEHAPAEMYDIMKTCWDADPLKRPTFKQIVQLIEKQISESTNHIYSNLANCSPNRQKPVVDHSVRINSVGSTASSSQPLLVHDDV
BrSK2(h), sequence (Q8IWQ3 whole entry): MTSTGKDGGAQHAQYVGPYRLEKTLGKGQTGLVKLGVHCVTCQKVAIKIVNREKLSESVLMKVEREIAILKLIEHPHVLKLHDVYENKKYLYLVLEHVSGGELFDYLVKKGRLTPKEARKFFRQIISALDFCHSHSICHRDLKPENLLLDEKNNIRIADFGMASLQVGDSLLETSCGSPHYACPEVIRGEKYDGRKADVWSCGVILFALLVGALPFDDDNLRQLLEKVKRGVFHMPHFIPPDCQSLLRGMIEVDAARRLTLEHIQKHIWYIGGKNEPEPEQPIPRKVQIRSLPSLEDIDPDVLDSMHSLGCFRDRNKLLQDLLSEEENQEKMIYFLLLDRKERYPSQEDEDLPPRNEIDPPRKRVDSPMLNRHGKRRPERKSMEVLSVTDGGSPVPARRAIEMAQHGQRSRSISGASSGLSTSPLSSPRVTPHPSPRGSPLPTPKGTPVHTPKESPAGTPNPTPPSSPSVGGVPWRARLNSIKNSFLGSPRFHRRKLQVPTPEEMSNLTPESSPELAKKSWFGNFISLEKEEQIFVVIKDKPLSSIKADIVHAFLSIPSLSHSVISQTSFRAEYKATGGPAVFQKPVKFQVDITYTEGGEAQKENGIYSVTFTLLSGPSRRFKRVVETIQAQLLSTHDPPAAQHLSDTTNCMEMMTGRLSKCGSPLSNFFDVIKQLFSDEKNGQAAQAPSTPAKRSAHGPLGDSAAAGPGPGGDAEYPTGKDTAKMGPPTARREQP
MELK(h), sequence (Q14680 whole entry): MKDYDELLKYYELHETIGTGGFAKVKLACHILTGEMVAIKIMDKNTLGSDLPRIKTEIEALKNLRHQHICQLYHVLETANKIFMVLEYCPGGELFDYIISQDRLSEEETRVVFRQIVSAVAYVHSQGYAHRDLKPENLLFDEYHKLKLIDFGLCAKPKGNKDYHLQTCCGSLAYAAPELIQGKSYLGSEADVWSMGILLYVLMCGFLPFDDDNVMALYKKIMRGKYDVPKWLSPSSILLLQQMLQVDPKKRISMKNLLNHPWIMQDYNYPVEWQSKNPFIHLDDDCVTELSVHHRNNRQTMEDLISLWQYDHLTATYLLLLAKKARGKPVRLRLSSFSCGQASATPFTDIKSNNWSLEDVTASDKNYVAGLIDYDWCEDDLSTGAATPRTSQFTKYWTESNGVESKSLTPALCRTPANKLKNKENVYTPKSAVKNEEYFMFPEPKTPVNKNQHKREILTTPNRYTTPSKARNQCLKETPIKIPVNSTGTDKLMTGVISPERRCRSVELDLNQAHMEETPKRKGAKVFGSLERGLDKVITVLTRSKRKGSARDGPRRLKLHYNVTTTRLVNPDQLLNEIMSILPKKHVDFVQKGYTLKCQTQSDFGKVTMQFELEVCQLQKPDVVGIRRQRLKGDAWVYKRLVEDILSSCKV
MSK2(h), sequence (O75676 whole entry): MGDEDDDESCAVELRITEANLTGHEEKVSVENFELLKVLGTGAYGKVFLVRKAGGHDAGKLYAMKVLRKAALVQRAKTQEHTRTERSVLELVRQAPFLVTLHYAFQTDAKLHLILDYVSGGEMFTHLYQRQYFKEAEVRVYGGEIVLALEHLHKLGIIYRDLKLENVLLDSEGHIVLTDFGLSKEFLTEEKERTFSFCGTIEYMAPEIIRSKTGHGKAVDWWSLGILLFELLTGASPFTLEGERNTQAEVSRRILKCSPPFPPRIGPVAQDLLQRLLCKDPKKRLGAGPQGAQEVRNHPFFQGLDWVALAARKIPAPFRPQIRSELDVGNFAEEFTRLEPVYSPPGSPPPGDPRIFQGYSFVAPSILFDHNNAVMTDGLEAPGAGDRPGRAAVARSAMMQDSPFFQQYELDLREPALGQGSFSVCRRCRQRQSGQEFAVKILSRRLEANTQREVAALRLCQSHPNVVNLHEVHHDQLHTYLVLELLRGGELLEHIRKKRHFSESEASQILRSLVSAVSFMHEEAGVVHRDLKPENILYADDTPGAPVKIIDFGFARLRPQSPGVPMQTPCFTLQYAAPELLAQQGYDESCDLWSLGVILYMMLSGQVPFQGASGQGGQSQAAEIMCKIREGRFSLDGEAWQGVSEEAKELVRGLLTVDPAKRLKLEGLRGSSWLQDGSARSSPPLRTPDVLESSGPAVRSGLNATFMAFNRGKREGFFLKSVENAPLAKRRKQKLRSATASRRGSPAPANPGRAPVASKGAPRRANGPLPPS
LKB1(h), sequence (Q15831 whole entry): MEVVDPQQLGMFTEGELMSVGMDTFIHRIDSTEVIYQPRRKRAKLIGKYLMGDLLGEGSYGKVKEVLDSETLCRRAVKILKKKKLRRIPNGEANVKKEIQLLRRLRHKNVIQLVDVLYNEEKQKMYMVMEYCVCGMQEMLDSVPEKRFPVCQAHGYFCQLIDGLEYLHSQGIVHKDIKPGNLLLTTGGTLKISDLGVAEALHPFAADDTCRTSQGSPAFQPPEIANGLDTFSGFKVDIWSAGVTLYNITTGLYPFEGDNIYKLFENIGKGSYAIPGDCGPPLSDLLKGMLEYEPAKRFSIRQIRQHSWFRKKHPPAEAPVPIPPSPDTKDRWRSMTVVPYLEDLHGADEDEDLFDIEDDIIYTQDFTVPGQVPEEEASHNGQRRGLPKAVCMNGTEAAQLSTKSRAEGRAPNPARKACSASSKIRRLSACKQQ
LKB1(h), sequence (Q7RTN6 whole entry partner): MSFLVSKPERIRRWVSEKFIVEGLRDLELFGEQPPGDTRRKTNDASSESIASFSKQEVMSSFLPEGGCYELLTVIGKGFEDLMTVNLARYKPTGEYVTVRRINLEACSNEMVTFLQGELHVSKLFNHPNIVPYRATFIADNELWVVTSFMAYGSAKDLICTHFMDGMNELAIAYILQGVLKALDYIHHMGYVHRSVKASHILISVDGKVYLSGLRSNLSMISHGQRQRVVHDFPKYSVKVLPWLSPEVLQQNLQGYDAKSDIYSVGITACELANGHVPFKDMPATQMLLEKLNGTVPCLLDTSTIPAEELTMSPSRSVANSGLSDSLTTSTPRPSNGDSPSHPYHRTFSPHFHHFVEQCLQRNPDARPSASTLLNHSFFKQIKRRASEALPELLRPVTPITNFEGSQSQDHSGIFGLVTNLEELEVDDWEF
LKB1(h), sequence (Q9Y376 whole entry partner): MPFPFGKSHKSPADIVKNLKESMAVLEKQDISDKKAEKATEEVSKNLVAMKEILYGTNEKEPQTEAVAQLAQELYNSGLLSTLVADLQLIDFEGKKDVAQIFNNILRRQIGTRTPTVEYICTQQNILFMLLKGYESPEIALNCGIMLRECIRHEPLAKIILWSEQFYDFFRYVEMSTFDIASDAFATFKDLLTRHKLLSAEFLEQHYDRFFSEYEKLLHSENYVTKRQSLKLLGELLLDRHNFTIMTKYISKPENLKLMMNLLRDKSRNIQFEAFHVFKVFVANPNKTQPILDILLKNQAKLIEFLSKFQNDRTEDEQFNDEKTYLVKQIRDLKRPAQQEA

half-life at 1 µM [3] [min] | Mouse Hepatocyte Clearance [3] [μL/min/10^6 Cells] | Cmax ([4]; ip, I.P.) [ng/mL] | Tmax ([4]; ip, I.P.) [min] | bioavailability ([4]; ip, I.P.) [%] | half-life ([4]; ip, I.P.) [min] | clearance ([4]; iv, I.V.) [mL/min/kg] | half-life ([4]; iv, I.V.) [min] | Vd ([4]; iv, I.V., read-out: Vss) [L/kg] | inhibition at 1 µM [5] [%] | inhibition at 1 µM [6] [%] | inhibition at 1 µM [7] [%] | inhibition at 1 µM [8] [%] | inhibition at 1 µM [9] [%] | inhibition at 1 µM [10] [%] | SMILES | effect on TNFα-stimulated p105 (Ser932) phosphorylation [1] | effect on TNFα-stimulated IκBα degradation [2] | impact on IKKβ-mediated canonical NF-κB signalling ([2]; prostate cancer cell line (PC-3M), at 10 μM)
51 | 27 | 199 | 26.4 | 9.3 | 181 | 16.7 | 251 | 0.39 | – | – | – | – | – | – | Nc1n[nH]c2ccc(-c3ccnc4[nH]c(-c5ccnc(OCc6ccccc6)c5)cc34)cc12 [Compound 6g [SU1349]] | no impact | no impact | no detectable impact
– | – | – | – | – | – | – | – | – | 51 | 15 | 41 | 12 | -16 | 41 | Nc1n[nH]c2ccc(-c3ccnc4[nH]c(-c5ccccc5)cc34)cc12 [Compound 4] | – | – | –
36 | 38 | – | – | – | – | – | – | – | 9 | 17 | 9 | -3 | -4 | 13 | Nc1n[nH]c2ccc(-c3ccnc4[nH]c(-c5cccc(OCc6ccccc6)c5)cc34)cc12 [Compound 5r [SU1261]] | no significant concentration-dependent inhibition | did not impact | –
